Assay results taken from the Deep4Chem optical property database.
Blank lines part the entries; values can stand above or below the compound they belong to.

Assay: solvent given as SMILES

emission maximum (in ClCCl): 419 nm
SMILES: ClP1(Cl)=N[P@](Cl)(Oc2ccc3ccc4cccc5ccc2c3c45)=N[P@@](Cl)(Oc2ccc3ccc4cccc5ccc2c3c45)=N1

emission maximum (in C1CCOC1): 470 nm
emission maximum (in CC#N): 484 nm
emission maximum (in CCO): 501 nm
emission maximum (in CN(C)C=O): 487 nm
emission maximum (in CO): 508 nm
emission maximum (in CS(C)=O): 501 nm
SMILES: CCOC(=O)c1sc(SC)c2c(=O)n(C)nnc12

emission maximum (in CCCCCC): 648 nm
SMILES: CC(C)[Si](C#Cc1c2nc3ccccc3nc2c(C#C[Si](C(C)C)(C(C)C)C(C)C)c2nc3c(ccc4cc5ccccc5cc43)nc12)(C(C)C)C(C)C

emission maximum (in C1CCCCC1): 364 nm
SMILES: c1ccc(-c2c3c(cc4c2-c2ccccc2C4)-c2ccccc2C3)cc1

emission maximum (in ClC(Cl)Cl): 435 nm
SMILES: F[B-]1(F)OC(c2cccc(Br)c2)=Cc2ccc3ccccc3[n+]21

emission maximum (in ClCCl): 563 nm
SMILES: Clc1ccc(N2c3sc4ccccc4c3Sc3sc4ccccc4c32)cc1

emission maximum (in CCCCCC): 682 nm
emission maximum (in ClCCl): 718 nm
SMILES: CC(C)[Si](C#Cc1c2cc3ccccc3cc2c(C#C[Si](C(C)C)(C(C)C)C(C)C)c2nc3cc4c(cc3nc12)C1c2ccccc2C4c2ccccc21)(C(C)C)C(C)C

emission maximum (in ClCCl): 428 nm
SMILES: COc1cc(OC)c2cc(C#N)c(=N)oc2c1

emission maximum (in CCO): 640 nm
emission maximum (in ClCCl): 627 nm
emission maximum (in O): 645 nm
SMILES: CCOC(=O)c1ccccc1-c1c2ccc(=[N+](CC)CC)cc-2oc2c1oc1cc(N)ccc12

The next lines start with the compound.

SMILES: c1ccc2c(c1)-c1ccccc1C21c2ccccc2-c2sc3c(c21)C1(c2ccccc2-c2ccccc21)c1ccccc1-3
emission maximum (in C1CCOC1): 403 nm

SMILES: c1ccc(N(c2ccccc2)c2ccc(-c3ccc4c(c3)C3(c5ccccc5Oc5ccccc53)c3cc(-c5ccc(N(c6ccccc6)c6ccccc6)cc5)ccc3-4)cc2)cc1
emission maximum (in ClCCl): 457 nm
emission maximum (in c1cc(-n2c3ccccc3c3ccccc32)cc(-n2c3ccccc3c3ccccc32)c1): 441 nm

SMILES: CCCCN1c2ccccc2Sc2cc(/C=C/c3nc4nc5ccccc5nc4s3)ccc21
emission maximum (in C1CCCCC1): 558 nm
emission maximum (in C1CCOC1): 670 nm
emission maximum (in C1COCCO1): 640 nm
emission maximum (in CC(C)=O): 739 nm
emission maximum (in CCOC(C)=O): 670 nm
emission maximum (in CCOCC): 635 nm
emission maximum (in Cc1ccccc1): 621 nm
emission maximum (in ClCCl): 729 nm

SMILES: CCCCCCCCCc1csc2cc(-c3cc(-c4cc5scc(CCCCCCCCC)c5s4)c4ccc5c(-c6cc7scc(CCCCCCCCC)c7s6)cc(-c6cc7scc(CCCCCCCCC)c7s6)c6ccc3c4c65)sc12
emission maximum (in ClC(Cl)Cl): 490 nm

SMILES: N#Cc1c(C#N)c(-n2c3ccccc3c3ccccc32)c(-n2c3ccccc3c3ccccc32)c(-n2c3ccccc3c3ccccc32)c1-n1c2ccccc2c2ccccc21
emission maximum (in Cc1ccccc1): 525 nm

SMILES: [C-]#[N+]c1ccc(-c2ccc(N(C)C)cc2)cc1
emission maximum (in C1CCCCC1): 360 nm
emission maximum (in C1CCOC1): 408 nm
emission maximum (in C1COCCO1): 397 nm
emission maximum (in CC#N): 429 nm
emission maximum (in CC(C)=O): 422 nm
emission maximum (in CCCCCC): 357 nm
emission maximum (in CCOC(C)=O): 406 nm
emission maximum (in CN(C)C=O): 433 nm
emission maximum (in CO): 430 nm
emission maximum (in CS(C)=O): 447 nm
emission maximum (in Cc1ccccc1): 387 nm
emission maximum (in ClC(Cl)Cl): 405 nm
emission maximum (in ClCCl): 412 nm
emission maximum (in O): 417 nm
emission maximum (in c1ccncc1): 422 nm

SMILES: CCCCC(CC)CN1C(=O)C2=C(c3ccc(-c4ccc(C5=C6C(C)=CC(C)=[N+]6[B-](F)(F)n6c(C)cc(C)c65)cc4)s3)N(CC(CC)CCCC)C(=O)C2=C1c1cccs1 (stereo not given)
emission maximum (in Cc1ccccc1): 623 nm

SMILES: c1ccc(-c2nc(-c3ccccc3)n3ccccc23)cc1
emission maximum (in C1CCCCC1): 445 nm
emission maximum (in CC#N): 478 nm
emission maximum (in CO): 477 nm
emission maximum (in ClC(Cl)Cl): 454 nm
emission maximum (in ClCCl): 484 nm
emission maximum (in O): 479 nm

SMILES: Cc1c(-c2nc(-c3ccccc3)nc(-c3ccccc3)n2)ccc(-n2c3ccccc3c3cc4c(cc32)C2c3ccccc3C4c3ccccc32)c1C
emission maximum (in Cc1ccccc1): 427 nm
emission maximum (in O=P(c1ccccc1)(c1ccccc1)c1ccccc1Oc1ccccc1P(=O)(c1ccccc1)c1ccccc1): 435 nm

SMILES: Cc1cc2ccccc2cc1C
emission maximum (in C1CCCCC1): 339.21 nm
